Our source for the IC50 and IC90 values is ChEMBL document CHEMBL4483862, “Open-source discovery of chemical leads for next-generation chemoprotective antimalarials” (2018).

The test deals with Plasmodium berghei. Nature of the test: Luciferase/luciferin-expressing antifolate-resistant parasites were used to infect a culture of HepG2 cells that were pre-incubated with compounds. Infected hepatocytes emit light due to the luciferase reaction. Assay results are presented as the percent inhibition of light emission compared to control. […]. In kind it is functional. Conditions: sporozoite; for IC90: read-out: LUCIFERASE INFECTION ASSAY - IC90.

Consider `O=C(c1cccs1)N1CCN(C2c3ccccc3-c3ccccc32)CC1`, for which the concentration for an effect of 90% (IC90) is over 9.15 µM. For the same compound, under “PBLUC_HILL_SLOPE 11.4, PBLUC_R_SQUARED 0.0886, read-out: LUCIFERASE INFECTION ASSAY - IC50”, the IC50 is over 9.15 µM.
With `CCc1ccc(C(CNC(=O)c2ccc3c(=O)n(-c4ccccc4F)c(=S)[nH]c3c2)N(C)C)cc1` (stereo not given), the IC90 is over 10 µM. Moreover, the IC50 (PBLUC_HILL_SLOPE 11.1, PBLUC_R_SQUARED 0.257, read-out: LUCIFERASE INFECTION ASSAY - IC50) was 9.21 µM.
Turning to `CCN1CCN(c2ccc(S(=O)(=O)N3CCOCC3)cc2NC(=O)/C=C/c2ccc([N+](=O)[O-])cc2)CC1`, the IC90 is over 10 µM. Moreover, the 50% inhibitory concentration (IC50) (PBLUC_HILL_SLOPE 11, PBLUC_R_SQUARED 0.478, read-out: LUCIFERASE INFECTION ASSAY - IC50) stood at 8.35 µM.
In the case of `CCNC(=O)C1CCCN(Cc2ccc3ccccc3c2Br)CC1` (stereo not given), the IC90 amounted to 3.91 µM. The IC50 (PBLUC_HILL_SLOPE 11.4, PBLUC_R_SQUARED 0.606, read-out: LUCIFERASE INFECTION ASSAY - IC50) came to 3.23 µM.
As to `COc1ccc(-c2cn3c(-c4ccc(OC)nc4)cnc3cn2)cn1`, the IC90 is over 9.9 µM. In addition, where the note is “PBLUC_HILL_SLOPE 11.1, PBLUC_R_SQUARED 0.0252, read-out: LUCIFERASE INFECTION ASSAY - IC50”, the IC50 came to 9.58 µM.
Take `O=C(Nc1ccc(OC(F)(F)F)cc1)Nc1cc(-c2ccccc2)n[nH]1`: the IC90 is 4.02 µM. Also, the IC50 (PBLUC_HILL_SLOPE 11.1, PBLUC_R_SQUARED 0.558, read-out: LUCIFERASE INFECTION ASSAY - IC50) worked out at 3.3 µM.
For `COc1cc(OC)cc(-c2cn3c(-c4cccc(N(C)C)c4)cnc3cn2)c1`, the IC90 is over 8.81 µM. Moreover, where the note is “PBLUC_HILL_SLOPE 11.4, PBLUC_R_SQUARED 0.677, read-out: LUCIFERASE INFECTION ASSAY - IC50”, the IC50 was found to be 7.8 µM.
Turning to `COc1ccc(-c2cnc3cnc(-c4ccc(CO)cc4)cn23)cc1`, the IC90 worked out at 9.11 µM. The IC50 (PBLUC_HILL_SLOPE 11.2, PBLUC_R_SQUARED 0.457, read-out: LUCIFERASE INFECTION ASSAY - IC50) came out at 7.48 µM.
With `CSc1nc2ccccc2c(=O)n1-c1c(C)cccc1C`, the IC90 was over 11.1 µM. For the same compound, the IC50 (PBLUC_HILL_SLOPE 11.2, PBLUC_R_SQUARED 0.357, read-out: LUCIFERASE INFECTION ASSAY - IC50) is 10.5 µM.
Regarding `Nc1nc(C2COc3ccccc3O2)ncc1S(=O)(=O)c1ccc(Cl)cc1` (stereo not given), the IC90 was over 8.17 µM. In addition, the IC50 (PBLUC_HILL_SLOPE 11.1, PBLUC_R_SQUARED 0.295, read-out: LUCIFERASE INFECTION ASSAY - IC50) was found to be 7.39 µM.
For the compound `CSc1nc(Sc2nnc(-c3ccc(C(C)(C)C)cc3)[nH]2)cc(Sc2nnc(-c3ccc(C(C)(C)C)cc3)[nH]2)n1`, the IC90 is over 5.6 µM. For the same compound, the IC50 (PBLUC_HILL_SLOPE 11.3, PBLUC_R_SQUARED 0.117, read-out: LUCIFERASE INFECTION ASSAY - IC50) turned out to be 5.38 µM.
Take `COc1ccc(-c2cnc3cnc(-c4ccc(C(=O)NC5CCCC5)cc4)cn23)cc1`: the IC90 was 7.76 µM. In addition, the IC50 (PBLUC_HILL_SLOPE 11.3, PBLUC_R_SQUARED 0.296, read-out: LUCIFERASE INFECTION ASSAY - IC50) was found to be 6.39 µM.
Turning to `NC(c1ccccc1)c1csc(Nc2ccc(-c3ccccc3)nn2)n1` (stereo not given), the IC90 was 3.73 µM. The half-inhibitory concentration (IC50) (PBLUC_HILL_SLOPE 11.1, PBLUC_R_SQUARED 0.371, read-out: LUCIFERASE INFECTION ASSAY - IC50) is 3.06 µM.
Turning to `Cc1sc2nc(-c3cccnc3)nc(N3CCN(S(=O)(=O)/C=C/c4ccccc4)CC3)c2c1C`, the IC90 was over 10 µM. In addition, for the setting “PBLUC_HILL_SLOPE 11.2, PBLUC_R_SQUARED 0.469, read-out: LUCIFERASE INFECTION ASSAY - IC50”, the IC50 turned out to be 8.64 µM.
With `CCOC(=O)c1c(C)nc(-c2ccco2)nc1SCc1ncc(-c2ccc(F)cc2)o1`, the IC90 is 3.58 µM. For the same compound, the 50% inhibitory concentration (IC50) (PBLUC_HILL_SLOPE 11.1, PBLUC_R_SQUARED 0.631, read-out: LUCIFERASE INFECTION ASSAY - IC50) came to 2.94 µM.
As to `CCN1C(=O)N(C2Cc3ccccc3C2)C(=O)C12CCN(Cc1ccc(-c3ccco3)cc1)CC2`, the IC90 was over 7.03 µM. Under “PBLUC_HILL_SLOPE 11.2, PBLUC_R_SQUARED 0.677, read-out: LUCIFERASE INFECTION ASSAY - IC50”, the concentration for half-maximal inhibition (IC50) came to 6.46 µM.
As for `CCCNC(=O)c1c(NC(=O)c2cc(OC)cc(OC)c2)nc2ccccn12`, the IC90 was over 8.63 µM. The IC50 (PBLUC_HILL_SLOPE 11.4, PBLUC_R_SQUARED 0.597, read-out: LUCIFERASE INFECTION ASSAY - IC50) turned out to be 7.32 µM.
Regarding `COc1cc(OC)c(C2=CCN(c3cc(=O)n4ccccc4n3)CC2)c(OC)c1`, the IC90 was over 10 µM. For the setting “PBLUC_HILL_SLOPE 11.4, PBLUC_R_SQUARED 0.492, read-out: LUCIFERASE INFECTION ASSAY - IC50”, the IC50 was found to be 9.03 µM.
In the case of `COc1ccc(-c2cnc3cnc(-c4ccc(OC(F)(F)F)cc4)cn23)cn1`, the IC90 was over 8.54 µM. In addition, where the note is “PBLUC_HILL_SLOPE 11.4, PBLUC_R_SQUARED 0.148, read-out: LUCIFERASE INFECTION ASSAY - IC50”, the IC50 is over 8.54 µM.
On to `CN(C)c1ccc(NC(=O)N2[C@@H]3CC[C@@H](C3)[C@H]2c2nc3cccc(OCc4ccc(F)cc4)c3[nH]2)cc1`, for which the IC90 is over 10 µM. Also, the IC50 (PBLUC_HILL_SLOPE 11.3, PBLUC_R_SQUARED 0.0257, read-out: LUCIFERASE INFECTION ASSAY - IC50) is over 10 µM.
For `CN(C)C(=O)c1cccc(-c2cn3c(-c4ccc(CO)cc4)cnc3cn2)c1`, the IC90 is over 8.86 µM. For the same compound, the IC50 (PBLUC_HILL_SLOPE 11.4, PBLUC_R_SQUARED 0.237, read-out: LUCIFERASE INFECTION ASSAY - IC50) worked out at 8.26 µM.
As for `CCS(=O)(=O)N1CCC(C(=O)N(Cc2ccccc2)c2nc(-c3ccc(F)cc3)cs2)CC1`, the IC90 is over 10 µM. Further, the IC50 (PBLUC_HILL_SLOPE 11.3, PBLUC_R_SQUARED 0.297, read-out: LUCIFERASE INFECTION ASSAY - IC50) is 8.84 µM.
For `CC1Sc2ccc(Cl)cc2C(=O)/C1=C/c1ccc(C(F)(F)F)cc1` (stereo not given), the IC90 was over 8.95 µM. The half-inhibitory concentration (IC50) (PBLUC_HILL_SLOPE 11.4, PBLUC_R_SQUARED 0.0512, read-out: LUCIFERASE INFECTION ASSAY - IC50) is over 8.95 µM.
As to `CCn1c2ccccc2c2cc(NC(=O)COC(=O)Cc3cccs3)ccc21`, the concentration for an effect of 90% (IC90) was over 10 µM. Besides, the IC50 (PBLUC_HILL_SLOPE 11.3, PBLUC_R_SQUARED 0.588, read-out: LUCIFERASE INFECTION ASSAY - IC50) turned out to be 9.26 µM.
As for `Cc1ccc(C(NCC(=O)Nc2cc(S(C)(=O)=O)ccc2Cl)c2ccccc2)cc1C` (stereo not given), the IC90 was 4.49 µM. Also, the half-inhibitory concentration (IC50) (PBLUC_HILL_SLOPE 11.2, PBLUC_R_SQUARED 0.465, read-out: LUCIFERASE INFECTION ASSAY - IC50) came out at 3.69 µM.
Regarding `Cn1c(SCC(=O)NC2CCCc3ccccc32)nnc1-c1cccnc1` (stereo not given), the IC90 is over 10 µM. Further, for the setting “PBLUC_HILL_SLOPE 11.1, PBLUC_R_SQUARED 0.239, read-out: LUCIFERASE INFECTION ASSAY - IC50”, the half-inhibitory concentration (IC50) was found to be 8.8 µM.
As to `O=C(Nc1cccc(Oc2cnccn2)c1)C(c1ccccc1)c1ccccc1`, the IC90 was over 10 µM. For the same compound, the IC50 (PBLUC_HILL_SLOPE 11.4, PBLUC_R_SQUARED 0.171, read-out: LUCIFERASE INFECTION ASSAY - IC50) amounted to 8.47 µM.
For the compound `Cn1cc(-c2cc(-c3cccc4ccccc34)cnc2N)cn1`, the IC90 was over 11 µM. Further, under “PBLUC_HILL_SLOPE 11.1, PBLUC_R_SQUARED 0.24, read-out: LUCIFERASE INFECTION ASSAY - IC50”, the IC50 came to 10.4 µM.
As to `CCc1ccc(Cl)c(CC)c1NC(=O)Cc1c(C)nn(CC(C)C)c1C`, the IC90 stood at 4.06 µM. In addition, under “PBLUC_HILL_SLOPE 11.4, PBLUC_R_SQUARED 0.518, read-out: LUCIFERASE INFECTION ASSAY - IC50”, the IC50 came to 3.35 µM.
Turning to `NS(=O)(=O)c1ccc(CNC(=O)Cn2cnc3ccccc3c2=O)cc1`, the IC90 was over 8.86 µM. Further, the IC50 (PBLUC_HILL_SLOPE 11.1, PBLUC_R_SQUARED 0.12, read-out: LUCIFERASE INFECTION ASSAY - IC50) is over 8.86 µM.
Regarding `COC(=O)c1ccc(=O)n(CC(=O)Nc2ccc(C(C)(C)C)cc2)c1`, the IC90 was over 10 µM. Further, the IC50 (PBLUC_HILL_SLOPE 11, PBLUC_R_SQUARED 0.594, read-out: LUCIFERASE INFECTION ASSAY - IC50) was determined as 9.09 µM.
Consider `CCC(C)c1ccc(NC(=O)Cc2ccc(NS(=O)(=O)c3ccc(Cl)c(Cl)c3)cc2)cc1` (stereo not given), for which the IC90 was over 10 µM. Moreover, under “PBLUC_HILL_SLOPE 11.4, PBLUC_R_SQUARED 0.218, read-out: LUCIFERASE INFECTION ASSAY - IC50”, the IC50 was determined as 9.54 µM.
On to `C=CCn1c(-c2ccccc2)c(C)sc1=Nc1ccc(Cl)cc1`, for which the IC90 is over 10 µM. Moreover, where the note is “PBLUC_HILL_SLOPE 11.2, PBLUC_R_SQUARED 0.0711, read-out: LUCIFERASE INFECTION ASSAY - IC50”, the IC50 was 9.93 µM.
`O=C(COC(=O)c1ccc2[nH]c3c(c2c1)CCCC3)c1ccc2c(c1)OCCO2`: the IC90 is 9.92 µM. Besides, under “PBLUC_HILL_SLOPE 11.3, PBLUC_R_SQUARED 0.654, read-out: LUCIFERASE INFECTION ASSAY - IC50”, the IC50 amounted to 8.17 µM.
For `COc1ccc(-c2cnc3cnc(-c4cccc(C(=O)NCCO)c4)cn23)cn1`, the IC90 was over 8.47 µM. Also, the IC50 (PBLUC_HILL_SLOPE 11.3, PBLUC_R_SQUARED 0.241, read-out: LUCIFERASE INFECTION ASSAY - IC50) worked out at 8.2 µM.
